Experimental data published in patent US4357341A, “Specific irreversible antagonism of histamine receptors by photoaffinity actuated compounds” (priority 1981, dated 1982).
Like-named read-outs stand apart in the source and are kept apart here.

Experiments:
[1] = target: T1, histamine receptor (H1), isolated guinea pig vas deferens (Cavia porcellus, UniProt P31389); assay: cell-based; design: Emax: dose or concentration left out as unconfirmed
Method: Adult, albino guinea pigs (250-350 g; Hilltop Lab Animals, Scottdale, PA) were killed by a blow to the head. Vasa deferentia were removed, desheathed and mounted in conventional apparatus for the measurement of isometric contractile responses. Each tissue preparation was bathed in a separate glass, water-jacketed organ chamber containing modified Krebs-Henseleit solution (37° C.) for one hour prior to the beginning of the experiment. The tissues were washed every 15 minutes. Resting tension was 200 mg. Agonist agents were added to the bath with stepwise increases in concentration. The agonists were added at 10 minute intervals and the tissues were exposed to each concentration for 2 minutes; the tissues were washed twice with agonist-free Krebs-Henseleit solution, at 5 minute intervals, between agonist additions.
Effect of AAH after irradiation in the presence of histamine receptor ligands. […] AAH was then added to the test tissue, leaving the control exposed only to ligand, and after a 5-minute incubation, both the test and control tissues were irradiated for 5 minutes. Both tissues were washed twice with fresh Krebs-Henseleit solution to remove all agents, and concentration-response determinations were performed 10 minutes after irradiation.

[2] = tested on: smooth muscle of the guinea-pig vas deferens, KCl responses; assay: KCl-induced contraction of isolated vas deferens (specificity of AAH); assay type: cell-based
Method: (§1) The tissues were washed every 15 minutes. Resting tension was 200 mg.
(§2) The effects of AAH on the response of the smooth muscle of the guinea-pig vas deferens to several agonists were examined using the following protocols.
(§3) Effect of AAH after photoactivation. While in the organ bath, one tissue of a pair was exposed to AAH for 5 minutes. The preparation was then irradiated with a tungsten-halogen projector lamp (DVY, 650 W, 3400° K., filament ca. 10 cm from the tissue) for 5 minutes. Bath temperature remained at 37° C. during irradiation. At the end of irradiation the tissues were washed twice with fresh Krebs-Kenseleit solution lacking AAH. Concentration-response determinations were begun 10 minutes after irradiation. Contralateral control tissues were irradiated in the absence of AAH and otherwise handled identically. […] Also shown is the time-course of the decline of absorbance at 266 nm. The native spectrum, consisting of a pronounced peak at 266 nm, shoulder at 286 and broad peak at 480-485 nm, was changed by photolysis in a time-dependent manner to one with several smaller peaks and troughs.
(§4) Effect of AAH without photoactivation. Two types of experiments were performed with non-irradiated AAH. In the first type, the test tissue was exposed to AAH for 10 minutes but not irradiated during the latter five minutes; the AAH was washed out before agonist agents were added. That is, the same schedule as was used above was employed, but the preparations were not irradiated. In the second type of experiment with non-irradiated AAH, the compound was added to the bath 15 minutes before and remained present during the addition of agonists. The contralateral control tissues for these experiments received no treatment.

[3] = target: T1, histamine receptor (H1), isolated guinea pig vas deferens; assay: Histamine-induced contraction of isolated vas deferens after photolysis and washout of AAH; assay type: cell-based; design: smooth muscle of the guinea-pig vas deferens; from tissue; host or cells: isolated, desheathed vas deferens of adult albino guinea pigs (Hilltop Lab Animals, Scottdale, PA)
Method: as §1, §2, §3

[4] = tested on: smooth muscle of the guinea-pig vas deferens, norepinephrine responses; assay: Norepinephrine-induced contraction of isolated vas deferens (specificity of AAH); assay type: cell-based; conditions: 3×10^-5 M AAH
Method: as §1, §2, §3
(§5) Effect of AAH without photoactivation. Two types of experiments were performed with non-irradiated AAH. In the first type, the test tissue was exposed to AAH for 10 minutes but not irradiated during the latter five minutes; the AAH was washed out before agonist agents were added. […]

[5] = target: T1, histamine receptor (H1), isolated guinea pig vas deferens; assay: Histamine-induced contraction of isolated vas deferens in the continual presence of non-irradiated AAH; assay type: cell-based; design: smooth muscle of the guinea-pig vas deferens; from tissue; host or cells: isolated, desheathed vas deferens of adult albino guinea pigs (Hilltop Lab Animals, Scottdale, PA)
Method: as §1, §2, §4

guinea pig vas deferens = assay: Direct contractile effect on isolated vas deferens; assay type: cell-based; conditions: AAH in the concentrations used
Method: as §1

[6] = tested on: smooth muscle of the guinea-pig vas deferens, MgATP responses; assay: MgATP-induced contraction of isolated vas deferens (specificity of AAH); assay type: cell-based; conditions: 3×10^-5 M AAH
Method: as §1, §2, §3, §5

[7] = Photolysis of AAH (absorbance decline at 266 nm); assay type: physicochemical
Method: FIG. 1 is spectra of 3×10^-5 M AAH (dissolved in modified Krebs-Henseleit solution) sampled before (solid line) and 5 minutes (dashed line) and 60 minutes (dotted line) after the beginning of irradiation. The reference cuvette contained modified Krebs-Henseleit solution. The inset illustrates the time-course of decline in absorbance a 266 nm; data points were obtained from scans performed after the irradiation intervals shown.
as §3

[8] = target: T1, histamine receptor (H1), isolated guinea pig vas deferens; assay: Histamine-induced contraction of isolated vas deferens after incubation with non-irradiated AAH and washout; assay type: cell-based; design: smooth muscle of the guinea-pig vas deferens; from tissue; host or cells: isolated, desheathed vas deferens of adult albino guinea pigs (Hilltop Lab Animals, Scottdale, PA); conditions: 3×10^-5 M AAH, 10 min incubation, not photoactivated, washed out
Method: as §1, §2, §4

[9] = tested on: smooth muscle of the guinea-pig vas deferens, acetylcholine responses; assay: Acetylcholine-induced contraction of isolated vas deferens (specificity of AAH); assay type: cell-based
Method: as §1, §2, §3, §4

[10] = 3×10^-5 M AAH, non-irradiated, continually present
[11] = 3×10^-5 M AAH, photoactivated, washed out
[12] = 3×10^-6 M AAH, photolyzed, washed out
[13] = 10^-5 M AAH, photolyzed, washed out
[14] = non-irradiated, continually present

T1 sequence (P31389 whole entry): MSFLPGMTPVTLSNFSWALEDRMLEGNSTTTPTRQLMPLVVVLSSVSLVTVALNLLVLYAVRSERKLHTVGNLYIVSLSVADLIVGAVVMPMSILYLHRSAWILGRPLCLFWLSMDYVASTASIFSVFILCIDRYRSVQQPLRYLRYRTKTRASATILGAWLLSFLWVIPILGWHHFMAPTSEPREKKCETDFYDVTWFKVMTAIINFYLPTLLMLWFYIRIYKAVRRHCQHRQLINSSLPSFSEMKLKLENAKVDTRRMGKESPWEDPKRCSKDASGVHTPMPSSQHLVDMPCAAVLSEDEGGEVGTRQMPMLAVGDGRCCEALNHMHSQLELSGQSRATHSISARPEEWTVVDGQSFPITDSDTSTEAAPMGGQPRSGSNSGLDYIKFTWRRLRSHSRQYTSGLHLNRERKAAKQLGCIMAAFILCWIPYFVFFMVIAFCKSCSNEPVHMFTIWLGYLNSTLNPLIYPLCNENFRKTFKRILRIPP

For `NCCc1c[nH]cn1` [histamine, 2-(4-imidazolyl)ethylamine], the “protection against AAH-induced antagonism when present during photoactivation of AAH” value ([1]; 3×10^-4 M histamine with AAH, n=4) was “no protective effect” and the Emax ([1]; read-out: response of the tissue, % of maximum response to histamine) was 90 to 100%.

`[Cl-].[K+]` [KCl, reference compound] gave an EC50 ([2]; irradiated control without AAH, read-out: EC50 of KCl, control) of 20 mM and an EC50 ([2]; non-irradiated control without AAH, read-out: EC50 of KCl, control) of 25 mM.

In the case of `[N-]=[N+]=Nc1ccc(NCCc2c[nH]cn2)c([N+](=O)[O-])c1` [AAH, 4(5)-[2-(4-azido-2-nitroanilino)ethyl]imidazole], the “effect on concentration-response relationship for KCl” value [2, 10] is reported as “no significant effect on concentration-response relationships”, the “effect on maximum responses or EC50's of KCl” value [2, 11] is reported as “no effect on the maximum responses or EC50's” and the EC50 ([2]; Cavia porcellus, light or radiation study, read-out: EC50 of KCl, AAH, 3×10^-5 M AAH, non-irradiated, continually present) is reported as 15.3 mM. The EC50 ([2]; Cavia porcellus, light or radiation study, read-out: EC50 of KCl, AAH, 3×10^-5 M AAH, photoactivated, washed out) was 19.5 mM, the “reversal of antagonism by repeated washing” value ([3]; 3×10^-5 M AAH, photolyzed) was “not reversed by repeated washing” and the “effect on the response of the tissues to histamine” value ([3]; 3×10^-5 M AAH, photolyzed, washed out) was “abolished the response of the tissues to histamine”. The “effect on maximum response to histamine” value [3, 12] was “small but significant decrease in the maximum response to histamine”, the “shift of the histamine concentration-response curve to the left of control” value [3, 12] was 1.89 fold and the “effect on the response of the tissues to histamine” value [3, 13] was “intermediate and irreversible antagonism”. For the same compound, the “shape of histamine concentration-response curve” value [3, 13] was “"bell"-shaped”, the “concentration range over which antagonism by AAH occurred” value ([3]; photolyzed AAH) was 10 fold and the “shift of norepinephrine concentration-response curve to the left of control” value [4, 14] was 5.50 fold. For the same compound, the “effect on maximum responses or EC50's of NE” value ([4]; photoactivated, washed out) was “no effect on the maximum responses or EC50's”, the “effect on the response to histamine” value [5, 10] was “abolished the response to histamine” and the “shift of the histamine concentration-response curve to the left of control” value ([5]; 3×10^-6 M AAH, non-irradiated, continually present) was 2.01 fold. The “shape of histamine concentration-response curve” value ([5]; 10^-5 M AAH, non-irradiated, continually present) was “"bell-shaped" concentration-response curve”, the “concentration range over which antagonism by AAH was observed” value ([5]; non-irradiated AAH, continually present) was 10 fold and the “reversibility of antagonism of histamine by non-photolyzed AAH” value ([5]; not irradiated) was “reversible if not irradiated”. For the same compound, the “contraction upon addition to the organ bath” value (guinea pig vas deferens) was “did not cause a contraction”, the “shift of MgATP concentration-response curve to the left of control” value [6, 14] was 12.89 fold and the “effect on maximum responses or EC50's of MgATP” value ([6]; photoactivated, washed out) was “no effect on the maximum responses or EC50's”. The half-life at 30 µM ([7]; 3×10^-5 M AAH, modified Krebs-Henseleit solution, tungsten-halogen lamp 650 W, read-out: t1/2 of first-order absorbance reduction at 266 nm caused by photolysis) was 3.8 min, the “percent of the maximum absorbance reduction produced by the 5-minute photoaffinity labeling period” value ([7]; 5 min irradiation, 266 nm) was “ca. 62%” and the “residual effect on responses to histamine” value [8] was “no residual effect on responses to histamine”. For the same compound, the “effect on concentration-response relationship for ACh” value [9, 10] was “no significant effect on concentration-response relationships”, the “effect on the maximum response to ACh” value [9, 11] was “no effect on the maximum response to ACh” and the “shift of the ACh concentration-response curve to the right of control” value [9, 11] was 3.07 fold. The “responses to acetylcholine after photolysis of AAH” value ([9]; photolyzed AAH) was “only slightly reduced”.
